Assay results: patent US20030105595A1, “Chi square tests for gene expression” (priority 2001, published 2003)

Key:
Assay in all cases: multi-sample expression analysis, band intensity
Assay type in all cases: in vivo
Conditions in all cases: Pooled
band b1i0_60.7 = test system: band b1i0_60.7
From the text: (§1) To practice the invention, one skilled in the art obtains a source of biological samples, as well as expression information about the biological samples, i.e., expression information relative to one or more genes or polypeptides encoded therein. Data is collected for a particular phenotype appearing within a given population under study, whereby expression of that phenotype is to be determined within the biological sample under study. The phenotype is correlated to a specific genotype, which is then represented as a band with a given intentity, thus indicative of gene expression levels, and is then compared to control samples. Alternatively, the response of a gene to dosage with one or more drugs is determined by band intensity. The standard deviation from the mean (StdDev) is calculated for the control samples, and is fit to functional form in the following equation: […]
(§2) A multi-sample expression analysis was run using the program described in Example 1. For each drug run, only runs for genes producing bands with a p-value<10^−5 in at least 2 of the following 3 comparisons were selected: low dose versus vehicle, high dose versus vehicle and low dose versus high dose. […] Since clusters found using all 13K bands included some of the best 2K bands, it was concluded that no essential signal was lost (see FIGS. 3 and 4). […] A comparison using the same analytic tests on only the best 2K bands. It can be seen that the Chi Square metric provides a better distinction between low and high doses than the correlation metric, which is not able to distinguish between the low dose and the high dose (see FIG. 6). The low-dose/high dose statistical variation is more pronounced when only the best 2K bands are selected.

band b1i0_57.4 = test system: band b1i0_57.4
From the text: as §1, §2

band b1i0_63.7 = test system: band b1i0_63.7
From the text: as §1, §2

band b1i0_51.7 = test system: band b1i0_51.7
From the text: as §1, §2

band b1i0_53.0 = test system: band b1i0_53.0
From the text: as §1, §2

band b1i0_54.5 = test system: band b1i0_54.5
From the text: as §1, §2

band b1i0_62.5 = test system: band b1i0_62.5
From the text: as §1, §2

band b1i0_69.4 = test system: band b1i0_69.4
From the text: as §1, §2

SMILES: Cc1cc(C(C)(C)C)c(O)c(C(C)(C)C)c1 [BHT]
- band intensity b1i0_60.7 (band b1i0_60.7; High dose, 1d): 71.52
- band intensity b1i0_60.7 (band b1i0_60.7; High dose, 3d): 70.09
- band intensity b1i0_60.7 (band b1i0_60.7; High dose, 7d): 62.31
- band intensity b1i0_60.7 (band b1i0_60.7; High dose, 14d): 68.41
- band intensity b1i0_60.7 (band b1i0_60.7; Low dose, 1d): 72.36
- band intensity b1i0_60.7 (band b1i0_60.7; Low dose, 3d): 69.13
- band intensity b1i0_60.7 (band b1i0_60.7; Low dose, 7d): 79.01
- band intensity b1i0_60.7 (band b1i0_60.7; Low dose, 14d): 90.11
- band intensity b1i0_57.4 (band b1i0_57.4; High dose, 1d): 1177
- band intensity b1i0_57.4 (band b1i0_57.4; High dose, 3d): 1235
- band intensity b1i0_57.4 (band b1i0_57.4; High dose, 7d): 990.2
- band intensity b1i0_57.4 (band b1i0_57.4; High dose, 14d): 1049
- band intensity b1i0_57.4 (band b1i0_57.4; Low dose, 1d): 1182
- band intensity b1i0_57.4 (band b1i0_57.4; Low dose, 3d): 1224
- band intensity b1i0_57.4 (band b1i0_57.4; Low dose, 7d): 1156
- band intensity b1i0_57.4 (band b1i0_57.4; Low dose, 14d): 1229
- band intensity b1i0_63.7 (band b1i0_63.7; High dose, 1d): 240.7
- band intensity b1i0_63.7 (band b1i0_63.7; High dose, 3d): 120.1
- band intensity b1i0_63.7 (band b1i0_63.7; High dose, 7d): 313.4
- band intensity b1i0_63.7 (band b1i0_63.7; High dose, 14d): 41.88
- band intensity b1i0_63.7 (band b1i0_63.7; Low dose, 1d): 152.6
- band intensity b1i0_63.7 (band b1i0_63.7; Low dose, 3d): 171.4
- band intensity b1i0_63.7 (band b1i0_63.7; Low dose, 7d): 132.3
- band intensity b1i0_63.7 (band b1i0_63.7; Low dose, 14d): 161.6
- band intensity b1i0_51.7 (band b1i0_51.7; High dose, 1d): 24.21
- band intensity b1i0_51.7 (band b1i0_51.7; High dose, 3d): 25.0702
- band intensity b1i0_51.7 (band b1i0_51.7; High dose, 7d): 17.72
- band intensity b1i0_51.7 (band b1i0_51.7; High dose, 14d): 26.78
- band intensity b1i0_51.7 (band b1i0_51.7; Low dose, 1d): 18.78
- band intensity b1i0_51.7 (band b1i0_51.7; Low dose, 3d): 18.02
- band intensity b1i0_51.7 (band b1i0_51.7; Low dose, 7d): 12.13
- band intensity b1i0_51.7 (band b1i0_51.7; Low dose, 14d): 18.31
- band intensity b1i0_53.0 (band b1i0_53.0; High dose, 1d): 104.3
- band intensity b1i0_53.0 (band b1i0_53.0; High dose, 3d): 101.7
- band intensity b1i0_53.0 (band b1i0_53.0; High dose, 7d): 104.1
- band intensity b1i0_53.0 (band b1i0_53.0; High dose, 14d): 82.87
- band intensity b1i0_53.0 (band b1i0_53.0; Low dose, 1d): 108.8
- band intensity b1i0_53.0 (band b1i0_53.0; Low dose, 3d): 87.18
- band intensity b1i0_53.0 (band b1i0_53.0; Low dose, 7d): 104.5
- band intensity b1i0_53.0 (band b1i0_53.0; Low dose, 14d): 96.38
- band intensity b1i0_54.5 (band b1i0_54.5; High dose, 1d): 82.82
- band intensity b1i0_54.5 (band b1i0_54.5; High dose, 3d): 96.92
- band intensity b1i0_54.5 (band b1i0_54.5; High dose, 7d): 81.74
- band intensity b1i0_54.5 (band b1i0_54.5; High dose, 14d): 93.42
- band intensity b1i0_54.5 (band b1i0_54.5; Low dose, 1d): 93.97
- band intensity b1i0_54.5 (band b1i0_54.5; Low dose, 3d): 101.5
- band intensity b1i0_54.5 (band b1i0_54.5; Low dose, 7d): 92.42
- band intensity b1i0_54.5 (band b1i0_54.5; Low dose, 14d): 91.73
- band intensity b1i0_62.5 (band b1i0_62.5; High dose, 1d): 81.06
- band intensity b1i0_62.5 (band b1i0_62.5; High dose, 3d): 56.24
- band intensity b1i0_62.5 (band b1i0_62.5; High dose, 7d): 81.59
- band intensity b1i0_62.5 (band b1i0_62.5; High dose, 14d): 57.74
- band intensity b1i0_62.5 (band b1i0_62.5; Low dose, 1d): 74.66
- band intensity b1i0_62.5 (band b1i0_62.5; Low dose, 3d): 70.37
- band intensity b1i0_62.5 (band b1i0_62.5; Low dose, 7d): 62.54
- band intensity b1i0_62.5 (band b1i0_62.5; Low dose, 14d): 63.7
- band intensity b1i0_69.4 (band b1i0_69.4; High dose, 1d): 241.7
- band intensity b1i0_69.4 (band b1i0_69.4; High dose, 3d): 251.2
- band intensity b1i0_69.4 (band b1i0_69.4; High dose, 7d): 255.9
- band intensity b1i0_69.4 (band b1i0_69.4; High dose, 14d): 268.8
- band intensity b1i0_69.4 (band b1i0_69.4; Low dose, 1d): 272.5
- band intensity b1i0_69.4 (band b1i0_69.4; Low dose, 3d): 190.6
- band intensity b1i0_69.4 (band b1i0_69.4; Low dose, 7d): 282.9
- band intensity b1i0_69.4 (band b1i0_69.4; Low dose, 14d): 286.5
